Patent EP4813381A1, “PHARMACEUTICAL USE OF GUAIANE SESQUITERPENE DERIVATIVE” (Nanjing University Of Chinese Medicine, priority 2023, dated 2025)

Experiments:
[1] = tested on: CCR2 mRNA; assay: CCR2 mRNA level in MDSCs (PCR); assay type: cell-based, mice; details: CCR2 mRNA levels in MDSCs, 2 h
Description: Mice were euthanized by cervical dislocation and immersed in 75% ethanol solution for 5 min. Under sterile conditions, the tibia was removed, both ends of the bone were cut, and bone marrow was repeatedly flushed into a 15 mL centrifuge tube using a 1 mL syringe filled with culture medium. Centrifuge at 1600 rpm for 5 min to collect bone marrow cells. Wash twice with 1×PBS, then resuspend in RPMI 1640 complete medium containing GM-CSF (10 ng/mL) + IL-4 (10 ng/mL) and transfer to a cell culture dish to stimulate differentiation of bone marrow cells into MDSCs. Count cells and adjust density to 1 × 10^6 cells/mL in complete medium. Seed cells uniformly into 6-well plates at 2 mL per well. […] After incubation, collect cells into centrifuge tubes, centrifuge at 1600 rpm for 5 min, wash once with 1×PBS, and add 500 µL RNA extraction reagent to each tube. After centrifugation to obtain the pellet, add 20 µL DEPC-treated water to each tube to dissolve the pellet. Determine RNA concentration and reverse transcribe to cDNA. Add the cDNA, primers, and reverse transcriptase to a 96-well plate. Centrifuge at 4000 rpm for 5 min, then place in a PCR instrument for detection.

[2] = tested on: MC903-induced atopic dermatitis (AD); assay: MC903-induced AD model on the dorsum of mice, Compound 1 ointment: skin thickness and dermatitis score; assay type: in vivo; parameters: Skin thickness: unit not given here; details: for inhibition rate (dorsal skin thickness): final day; for Dermatitis Score: back, score max 12; for Skin thickness: dorsal region, AD mice
Description: Weigh white petrolatum, light liquid paraffin, glyceryl monostearate, ethylparaben, and cetyl alcohol. Heat to 65 °C while stirring until dissolved. Slowly add the dissolved active pharmaceutical ingredient (API) while continuing to stir until uniformly mixed. Set aside. • (2) Aqueous Phase Preparation: […] Slowly add the aqueous phase to the oil phase while maintaining 65 °C, homogenize, and continue stirring for 30 min; • (4) Cooling: Stop heating, continue stirring, gradually reduce to room temperature, cool to form an ointment, and fill containers. […] Dissolve these substances in a small amount of propylene glycol, then place the resulting solution into the aforementioned pre-cooled blank ointment base. […] Establishment of the AD Model on the Dorsum of Mice and Drug Administration: […] Except for the Normal group, all other groups underwent AD modeling: 48 hours prior to the experiment, hair on the dorsal neck region was meticulously removed using clippers and depilatory cream. […] Model and control group mice received daily application of blank ointment. Twenty-four hours after completing the 14-day modeling period, photographs of skin lesions were taken, and skin lesion and blood samples were collected. Skin Lesion Severity Score: […] Statistical analysis was performed on the data.

[3] = tested on: renal injury markers (Ngal, Havcr1), inflammatory cytokines (TNF, IL-6, IL-1), fibrosis-related factors (α-Sma, Col1a1, Tgfb1); assay: Folic acid acute kidney injury model in mice: Q-PCR of kidney tissue; assay type: in vivo, C57BL/6 mice; parameters: Tnf / Il1 / Il6: unit not given here; details: kidney mRNA, acute model (FA)
[4] = tested on: lupus nephritis; assay: Lupus nephritis MRL/lpr mice: urinary protein, Scr, BUN, urinary Kim-1 and β-MG; assay type: in vivo; parameters: Scr / BUN / Kim-1 / β-MG: unit not given here; details: oral 30 mg/kg, 8 weeks
Description: RT Supermix for qPCR, Nanjing Vazyme Biotech Co., Ltd.; Urea Colorimetric Test Kit, Creatinine Colorimetric Test Kit, Nanjing Jiancheng Biotechnology Co., Ltd.; Urinary Kim-1 and β-MG Content ELISA Kits, Abcam. • Experimental animals: MRL/MpJ and MRL/lpr mice, female, 10 weeks old, purchased from GemPharmatech LLC. Production license number: SCXK(Su)2023-0009. […] They were acclimated for 7 days before use in experiments. […] Oral administration was performed continuously for 8 weeks. […] Aspirate the serum, aliquot it, and store at -70 °C for future use. After blood collection, euthanize mice by cervical dislocation. Open the abdominal cavity, remove kidneys, and dissect out perirenal fat and capsules. […] Store remaining tissues at -70 °C for future use. Serum Creatinine (Scr) and Blood Urea Nitrogen (BUN) Assay: […] Samples were added sequentially strictly according to the kit instructions, incubated at 37 °C, and measured for absorbance values using an enzyme-linked immunosorbent assay (ELISA) reader. The concentration levels of each indicator were calculated based on the standard curve.

[5] = tested on: Hepa1-6 cells; assay type: in vivo; details: Hepa1-6 xenograft, male C57BL/6 mice, compound 20 alone, dose 1 (head µmol/kg/day; text 1 mg/kg/day), intraperitoneal daily, 2 weeks
Description: Hepa1-6 cells were cultured and expanded in vitro. An appropriate amount of cells in the logarithmic growth phase was resuspended in a mixture of serum-free DMEM medium and Matrigel (1:1). Under sterile conditions, prepare a cell suspension at 2.5 × 10^6 cells/100 µL. Using a syringe, inject 100 µL of the cell suspension subcutaneously into the left forelimb axilla of male C57BL/6 mice. […]. […] During the treatment period, mouse body weight and tumor diameter were measured daily. At the end of the experiment, mice were euthanized by cervical dislocation, and tumors were removed and weighed. Tumor volume (TV) was calculated using the formula: TV = 1/2 × a × b^2, where a represents the longest diameter of the tumor and b represents the shortest diameter.

In the case of `C=C1C(=O)O[C@@H]2[C@@H]3[C@]4(CC[C@@]3(C)O)C[C@]4(C)CC[C@@H]12` [compound 1], the “CCR2 mRNA suppression rate in MDSCs (%)” value ([1]; 1 µM) is reported as 35.2%, the “CCR2 mRNA suppression rate in MDSCs (%)” value ([1]; 10 µM) is reported as 76.5% and the “inhibition rate (dorsal skin thickness)” value ([2]; 0.01% Compound 1 ointment) is reported as 66%. For the same compound, the “inhibition rate (dorsal skin thickness)” value ([2]; 0.1% Compound 1 ointment) was 72%, the “inhibition rate (dorsal skin thickness)” value ([2]; 1% Compound 1 ointment) was 83% and the “Dermatitis Score” value ([2]; 0.01% ointment for 7 days) was 3.67±0.33. For the same compound, the “Dermatitis Score” value ([2]; 0.1% ointment for 7 days) was 2.50±0.22, the “Dermatitis Score” value ([2]; 1% ointment for 7 days) was 2.17±0.17 and the Skin thickness ([2]; 0.01% ointment) was 36.06±0.91. For the same compound, the Skin thickness ([2]; 0.1% ointment) was 33.11±0.31, the Skin thickness ([2]; 1% ointment) was 29.56±0.25 and the Col1a1 ([3]; oral 0.1 mg/kg) was 1.64±0.16. The Havcr1 ([3]; oral 0.1 mg/kg) was 175.10±17.63, the Il1 ([3]; oral 0.1 mg/kg) was 2.62±0.56 and the Il6 ([3]; oral 0.1 mg/kg) was 8.02±0.77. For the same compound, the Ngal ([3]; oral 0.1 mg/kg) was 30.52±5.05, the Tgfb1 ([3]; oral 0.1 mg/kg) was 1.96±0.17 and the Tnf ([3]; oral 0.1 mg/kg) was 2.89±0.59. It also gave a α-Sma ([3]; oral 0.1 mg/kg) of 1.82±0.19, a Col1a1 ([3]; oral 1 mg/kg) of 1.32±0.15 and a Havcr1 ([3]; oral 1 mg/kg) of 99.99±7.98. The Il1 ([3]; oral 1 mg/kg) was 1.72±0.45, the Il6 ([3]; oral 1 mg/kg) was 3.98±0.59 and the Ngal ([3]; oral 1 mg/kg) was 20.17±2.21. The Tgfb1 ([3]; oral 1 mg/kg) was 1.36±0.10, the Tnf ([3]; oral 1 mg/kg) was 2.76±0.71 and the α-Sma ([3]; oral 1 mg/kg) was 1.42±0.11.
In the case of `CN(C)C[C@@H]1C(=O)O[C@H]2[C@H]1CC[C@@]1(C)C[C@]13CC[C@@](C)(O)[C@H]23` [compound 20], the “24-hour urine protein level” value [4] is reported as 0.58±0.03, the BUN ([4]; serum) is reported as 9.55±0.75 and the Scr ([4]; serum) is reported as 18.55±1.08. For the same compound, the Kim-1 ([4]; urine) was 0.41±0.02, the β-MG ([4]; urine) was 13.55±0.14 and the “Tumor Inhibition Rate (%)” value [5] was 72.37%. The “Tumor weight” value [5] was 0.12 ± 0.09 g.
